Test results: PubChem BioAssay (NCI)
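GI50 is the concentration that inhibits growth by half. TGI: concentration producing complete growth inhibition.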

Experiments:
Assay in all cases: NCI-60 cell line screen, 384-well format
NCI-H460 NSCLC = tested on: NCI-H460 NSCLC
HCT-116 colon = tested on: HCT-116 colon
U251 glioblastoma = tested on: U251 glioblastoma
HCT-15 colon = tested on: HCT-15 colon
786-0 renal = tested on: 786-0 renal
CCRF-CEM leukemia = tested on: CCRF-CEM leukemia
MALME-3M melanoma = tested on: MALME-3M melanoma
HL-60(TB) leukemia = tested on: HL-60(TB) leukemia
OVCAR-3 ovarian = tested on: OVCAR-3 ovarian
A498 renal = tested on: A498 renal
DU-145 prostate = tested on: DU-145 prostate
SF-539 CNS = tested on: SF-539 CNS
T-47D breast = tested on: T-47D breast
SK-MEL-2 melanoma = tested on: SK-MEL-2 melanoma
SK-OV-3 ovarian = tested on: SK-OV-3 ovarian
RXF 393 renal = tested on: RXF 393 renal
MDA-MB-468 breast = tested on: MDA-MB-468 breast
HT29 colon = tested on: HT29 colon
MOLT-4 leukemia = tested on: MOLT-4 leukemia
K-562 leukemia = tested on: K-562 leukemia
HS 578T breast = tested on: HS 578T breast
NCI-H322M lung = tested on: NCI-H322M lung
UACC-257 melanoma = tested on: UACC-257 melanoma
IGROV1 ovarian = tested on: IGROV1 ovarian
SK-MEL-28 melanoma = tested on: SK-MEL-28 melanoma
SF-295 CNS = tested on: SF-295 CNS
SR leukemia = tested on: SR leukemia
NCI-H226 lung = tested on: NCI-H226 lung
NCI/ADR-RES ovarian = tested on: NCI/ADR-RES ovarian
MDA-MB-231 breast = tested on: MDA-MB-231 breast
A549 NSCLC = tested on: A549 NSCLC
SNB-19 CNS = tested on: SNB-19 CNS
SW-620 colon = tested on: SW-620 colon
HCC-2998 colon = tested on: HCC-2998 colon
OVCAR-8 ovarian = tested on: OVCAR-8 ovarian
SN12C renal = tested on: SN12C renal
RPMI-8226 leukemia = tested on: RPMI-8226 leukemia
EKVX NSCLC = tested on: EKVX NSCLC
SF-268 CNS = tested on: SF-268 CNS
OVCAR-4 ovarian = tested on: OVCAR-4 ovarian
SNB-75 CNS = tested on: SNB-75 CNS
OVCAR-5 ovarian = tested on: OVCAR-5 ovarian
MCF7 breast = tested on: MCF7 breast
M14 melanoma = tested on: M14 melanoma
BT-549 breast = tested on: BT-549 breast
PC-3 prostate = tested on: PC-3 prostate
HOP-62 NSCLC = tested on: HOP-62 NSCLC
SK-MEL-5 melanoma = tested on: SK-MEL-5 melanoma
NCI-H522 lung = tested on: NCI-H522 lung
HOP-92 NSCLC = tested on: HOP-92 NSCLC
TK-10 renal = tested on: TK-10 renal
NCI-H23 lung = tested on: NCI-H23 lung
CAKI-1 renal = tested on: CAKI-1 renal
MDA-MB-435 melanoma = tested on: MDA-MB-435 melanoma
UACC-62 melanoma = tested on: UACC-62 melanoma
COLO 205 colon = tested on: COLO 205 colon
ACHN renal = tested on: ACHN renal
KM12 colon = tested on: KM12 colon

`C[C@@H]1OC(O)[C@@H](F)[C@H](O)[C@@H]1O` (stereo partly specified) was tested, and the GI50 (NCI-H460 NSCLC) was greater than 100 µM, the TGI (NCI-H460 NSCLC) was greater than 100 µM and the GI50 (HCT-116 colon) was greater than 100 µM. It also gave a TGI (HCT-116 colon) greater than 100 µM, a GI50 (U251 glioblastoma) greater than 100 µM and a TGI (U251 glioblastoma) greater than 100 µM. For the same molecule, the GI50 (HCT-15 colon) was greater than 100 µM, the TGI (HCT-15 colon) was greater than 100 µM and the GI50 ([…]-0 renal) was greater than 100 µM. For the same molecule, the TGI (786-0 renal) was greater than 100 µM, the GI50 (CCRF-CEM leukemia) was greater than 100 µM and the TGI (CCRF-CEM leukemia) was greater than 100 µM. It also gave a GI50 (MALME-3M melanoma) greater than 100 µM, a TGI (MALME-3M melanoma) greater than 100 µM and a GI50 (HL-60(TB) leukemia) greater than 100 µM. For the same molecule, the TGI (HL-60(TB) leukemia) was greater than 100 µM, the GI50 (OVCAR-3 ovarian) was greater than 100 µM and the TGI (OVCAR-3 ovarian) was greater than 100 µM. For the same molecule, the GI50 (A498 renal) was greater than 100 µM, the TGI (A498 renal) was greater than 100 µM and the GI50 (DU-145 prostate) was greater than 100 µM. It also gave a TGI (DU-145 prostate) greater than 100 µM, a GI50 (SF-539 CNS) greater than 100 µM and a TGI (SF-539 CNS) greater than 100 µM. For the same molecule, the GI50 (T-47D breast) was greater than 100 µM, the TGI (T-47D breast) was greater than 100 µM and the GI50 (SK-MEL-2 melanoma) was greater than 100 µM. The TGI (SK-MEL-2 melanoma) was greater than 100 µM, the GI50 (SK-OV-3 ovarian) was greater than 100 µM and the TGI (SK-OV-3 ovarian) was greater than 100 µM. For the same molecule, the GI50 (RXF 393 renal) was greater than 100 µM, the TGI (RXF 393 renal) was greater than 100 µM and the GI50 (MDA-MB-468 breast) was greater than 100 µM. The TGI (MDA-MB-468 breast) was greater than 100 µM, the GI50 (HT29 colon) was greater than 100 µM and the TGI (HT29 colon) was greater than 100 µM. It also gave a GI50 (MOLT-4 leukemia) greater than 100 µM, a TGI (MOLT-4 leukemia) greater than 100 µM and a GI50 (K-562 leukemia) greater than 100 µM. For the same molecule, the TGI (K-562 leukemia) was greater than 100 µM, the GI50 (HS 578T breast) was greater than 100 µM and the TGI (HS 578T breast) was greater than 100 µM. The GI50 (NCI-H322M lung) was greater than 100 µM, the TGI (NCI-H322M lung) was greater than 100 µM and the GI50 (UACC-257 melanoma) was greater than 100 µM. The TGI (UACC-257 melanoma) was greater than 100 µM, the GI50 (IGROV1 ovarian) was greater than 100 µM and the TGI (IGROV1 ovarian) was greater than 100 µM. The GI50 (SK-MEL-28 melanoma) was greater than 100 µM, the TGI (SK-MEL-28 melanoma) was greater than 100 µM and the GI50 (SF-295 CNS) was greater than 100 µM. It also gave a TGI (SF-295 CNS) greater than 100 µM, a GI50 (SR leukemia) greater than 100 µM and a TGI (SR leukemia) greater than 100 µM. The GI50 (NCI-H226 lung) was greater than 100 µM, the TGI (NCI-H226 lung) was greater than 100 µM and the GI50 (NCI/ADR-RES ovarian) was greater than 100 µM. For the same molecule, the TGI (NCI/ADR-RES ovarian) was greater than 100 µM, the GI50 (MDA-MB-231 breast) was greater than 100 µM and the TGI (MDA-MB-231 breast) was greater than 100 µM. For the same molecule, the GI50 (A549 NSCLC) was greater than 100 µM, the TGI (A549 NSCLC) was greater than 100 µM and the GI50 (SNB-19 CNS) was greater than 100 µM. For the same molecule, the TGI (SNB-19 CNS) was greater than 100 µM, the GI50 (SW-620 colon) was greater than 100 µM and the TGI (SW-620 colon) was greater than 100 µM. It also gave a GI50 (HCC-2998 colon) greater than 100 µM, a TGI (HCC-2998 colon) greater than 100 µM and a GI50 (OVCAR-8 ovarian) greater than 100 µM. It also gave a TGI (OVCAR-8 ovarian) greater than 100 µM, a GI50 (SN12C renal) greater than 100 µM and a TGI (SN12C renal) greater than 100 µM. For the same molecule, the GI50 (RPMI-8226 leukemia) was greater than 100 µM, the TGI (RPMI-8226 leukemia) was greater than 100 µM and the GI50 (EKVX NSCLC) was greater than 100 µM. For the same molecule, the TGI (EKVX NSCLC) was greater than 100 µM, the GI50 (SF-268 CNS) was greater than 100 µM and the TGI (SF-268 CNS) was greater than 100 µM. For the same molecule, the GI50 (OVCAR-4 ovarian) was greater than 100 µM, the TGI (OVCAR-4 ovarian) was greater than 100 µM and the GI50 (SNB-75 CNS) was greater than 100 µM. For the same molecule, the TGI (SNB-75 CNS) was greater than 100 µM, the GI50 (OVCAR-5 ovarian) was greater than 100 µM and the TGI (OVCAR-5 ovarian) was greater than 100 µM. The GI50 (MCF7 breast) was greater than 100 µM, the TGI (MCF7 breast) was greater than 100 µM and the GI50 (M14 melanoma) was greater than 100 µM. It also gave a TGI (M14 melanoma) greater than 100 µM, a GI50 (BT-549 breast) greater than 100 µM and a TGI (BT-549 breast) greater than 100 µM. It also gave a GI50 (PC-3 prostate) greater than 100 µM, a TGI (PC-3 prostate) greater than 100 µM and a GI50 (HOP-62 NSCLC) greater than 100 µM. The TGI (HOP-62 NSCLC) was greater than 100 µM, the GI50 (SK-MEL-5 melanoma) was greater than 100 µM and the TGI (SK-MEL-5 melanoma) was greater than 100 µM. It also gave a GI50 (NCI-H522 lung) greater than 100 µM, a TGI (NCI-H522 lung) greater than 100 µM and a GI50 (HOP-92 NSCLC) greater than 100 µM. For the same molecule, the TGI (HOP-92 NSCLC) was greater than 100 µM, the GI50 (TK-10 renal) was greater than 100 µM and the TGI (TK-10 renal) was greater than 100 µM. It also gave a GI50 (NCI-H23 lung) greater than 100 µM, a TGI (NCI-H23 lung) greater than 100 µM and a GI50 (CAKI-1 renal) greater than 100 µM. It also gave a TGI (CAKI-1 renal) greater than 100 µM, a GI50 (MDA-MB-435 melanoma) greater than 100 µM and a TGI (MDA-MB-435 melanoma) greater than 100 µM. The GI50 (UACC-62 melanoma) was greater than 100 µM, the TGI (UACC-62 melanoma) was greater than 100 µM and the GI50 (COLO 205 colon) was greater than 100 µM. The TGI (COLO 205 colon) was greater than 100 µM, the GI50 (ACHN renal) was greater than 100 µM and the TGI (ACHN renal) was greater than 100 µM. It also gave a GI50 (KM12 colon) greater than 100 µM and a TGI (KM12 colon) greater than 100 µM.
